According to PMC8158703, “The Glitazone Class of Drugs as Carbonic Anhydrase Inhibitors—A Spin-Off Discovery from Fragment Screening” (Molecules, 2021):
Where a name gives a salt, the structure may show the parent alone.

Tests used:
[1] = target: CA II; conditions: CA II hit fragments, SPR; cited from earlier work
[2] = target: T1, hCA XII (Homo sapiens, UniProt O43570); assay: Stopped flow CO2 hydrase assay; format: biochemical; conditions: mean from three assays, errors ±10%
T1 construct: made in house
Method: (§1) In addition to the ubiquitous hCA II, all other catalytically active hCA enzymes (I, IV, VA, VB, VI, VII, IX, XII, XIII and XIV) were assessed, providing a comprehensive profile of CA enzyme inhibition, Table 2. […] Different CAs have different expression profiles and cell locations. […] A comparison between hCA VII and hCA II has identified 7 residue differences (S65A, Q67N, D69E, K91I, A135V, S136Q, S204L) among the 23 residues within the active site cavity.
(§2) An Applied Photophysics stopped-flow instrument was used for assaying the inhibition of the CA catalysed CO2 hydration reaction. […] The uncatalyzed rates were determined in the same manner and subtracted from the total observed rates. […] Inhibitor and enzyme solutions were preincubated together for 15 min at room temperature prior to assay to allow for the formation of the enzyme inhibitor complex. The inhibition constants were obtained by nonlinear least squares methods using PRISM 3 (GraphPad Software Inc, San Diego, CA, USA). […] The catalytic activity (in the absence of inhibitors) of the different enzymes was calculated from Lineweaver–Burk plots and represent the mean from at least three different determinations. […] Enzymes used here were recombinant ones, prepared and purified as described earlier.

[3] = target: T2, hCA I (Homo sapiens, UniProt P00915); assay: Stopped flow CO2 hydrase assay; format: biochemical; conditions: mean from three assays, errors ±10%
T2 construct: made in house
Method: as §1, §2

[4] = target: T3, hCA IV (Homo sapiens, UniProt P22748); assay: Stopped flow CO2 hydrase assay; format: biochemical; conditions: mean from three assays, errors ±10%
T3 construct: made in house
Method: as §1, §2

[5] = target: T4, hCA VII (Homo sapiens, UniProt P43166); assay: Stopped flow CO2 hydrase assay; format: biochemical; conditions: mean from three assays, errors ±10%
T4 construct: made in house
Method: as §1, §2

[6] = target: T5, hCA II (Homo sapiens, UniProt P00918); assay: Stopped flow CO2 hydrase assay; format: biochemical; conditions: mean from three assays, errors ±10%
T5 construct: made in house
Method: as §1, §2

[7] = target: T6, hCA IX (Homo sapiens, UniProt Q16790); assay: Stopped flow CO2 hydrase assay; format: biochemical; conditions: mean from three assays, errors ±10%
T6 construct: made in house
Method: as §1, §2

[8] = target: T7, hCA XIII (Homo sapiens, UniProt Q8N1Q1); assay: Stopped flow CO2 hydrase assay; format: biochemical; conditions: mean from three assays, errors ±10%
T7 construct: made in house
Method: (§3) CA enzyme inhibition data was determined by measuring the CA-catalysed hydration of CO2 in the presence of 11–13. In addition to the ubiquitous hCA II, all other catalytically active hCA enzymes (I, IV, VA, VB, VI, VII, IX, XII, XIII and XIV) were assessed, providing a comprehensive profile of CA enzyme inhibition, Table 2. […]. Different CAs have different expression profiles and cell locations. […] A comparison between hCA VII and hCA II has identified 7 residue differences (S65A, Q67N, D69E, K91I, A135V, S136Q, S204L) among the 23 residues within the active site cavity. […] Here, we propose that this further extends to the minimal differences in observed active site compound binding strength between these isozymes. […]. Furthermore, they are considered a validated target for antiobesity drug development, in which they have been proposed to have an involvement in insulin secretion, however this mechanism is not yet fully understood. […]. The appreciable inhibition of the glitazones for the different CA isozymes highlights the potential for CA-mediated off-target effects of these drugs when used clinically, and given the reported polypharmacology observed for these compounds, this may provide an avenue for further understanding of their mechanism of action.
(§4) An Applied Photophysics stopped-flow instrument was used for assaying the inhibition of the CA catalysed CO2 hydration reaction. Phenol red (0.2 mM) was used as indicator, monitored at the absorbance maximum of 557 nm. Reactions were carried out in a HEPES (10 mM, pH 7.4) buffer and NaClO4 (10 mM), for maintaining the ionic strength constant, the ClO4^- anion is not inhibitory against most CA isoforms at 25 °C [62]. […]. Inhibitors were tested in the concentration range of 0.01 nM–100 μM, and at least six traces of the initial 5–10% of the reaction have been used for determining the initial velocity. The uncatalyzed rates were determined in the same manner and subtracted from the total observed rates. Stock solutions of inhibitor (1 mM) were prepared in distilled, deionized water with 10–20% (v/v) DMSO (which is not inhibitory at these concentrations), and dilutions were performed thereafter with the assay buffer. Inhibitor and enzyme solutions were preincubated together for 15 min at room temperature prior to assay to allow for the formation of the enzyme inhibitor complex. The inhibition constants were obtained by nonlinear least squares methods using PRISM 3 (GraphPad Software Inc, San Diego, CA, USA). […]. The catalytic activity (in the absence of inhibitors) of the different enzymes was calculated from Lineweaver–Burk plots and represent the mean from at least three different determinations. Enzyme concentrations in the assay system were in the range of 3.8–9.5 nM. Enzymes used here were recombinant ones, prepared and purified as described earlier.

[9] = target: T8, hCA VB (Homo sapiens, UniProt Q9Y2D0); assay: Stopped flow CO2 hydrase assay; format: biochemical; conditions: mean from three assays, errors ±10%
T8 construct: made in house
Method: as §3, §4

[10] = target: T9, hCA VI (Homo sapiens, UniProt P23280); assay: Stopped flow CO2 hydrase assay; format: biochemical; conditions: mean from three assays, errors ±10%
T9 construct: made in house
Method: as §3, §4

[11] = target: T10, hCA XIV (Homo sapiens, UniProt Q9ULX7); assay: Stopped flow CO2 hydrase assay; format: biochemical; conditions: mean from three assays, errors ±10%
T10 construct: made in house
Method: as §3, §4

[12] = target: T11, hCA VA (Homo sapiens, UniProt P35218); assay: Stopped flow CO2 hydrase assay; format: biochemical; conditions: mean from three assays, errors ±10%
T11 construct: made in house
Method: as §3, §4

T3 sequence (P22748 19-312): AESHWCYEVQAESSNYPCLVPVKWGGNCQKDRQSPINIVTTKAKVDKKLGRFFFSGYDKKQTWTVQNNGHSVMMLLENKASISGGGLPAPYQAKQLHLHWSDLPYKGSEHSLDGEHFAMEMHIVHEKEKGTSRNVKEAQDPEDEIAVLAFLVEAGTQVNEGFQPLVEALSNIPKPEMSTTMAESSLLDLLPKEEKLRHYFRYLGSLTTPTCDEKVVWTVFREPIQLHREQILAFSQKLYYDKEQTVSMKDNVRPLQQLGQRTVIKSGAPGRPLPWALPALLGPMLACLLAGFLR
T11 sequence (P35218 39-305): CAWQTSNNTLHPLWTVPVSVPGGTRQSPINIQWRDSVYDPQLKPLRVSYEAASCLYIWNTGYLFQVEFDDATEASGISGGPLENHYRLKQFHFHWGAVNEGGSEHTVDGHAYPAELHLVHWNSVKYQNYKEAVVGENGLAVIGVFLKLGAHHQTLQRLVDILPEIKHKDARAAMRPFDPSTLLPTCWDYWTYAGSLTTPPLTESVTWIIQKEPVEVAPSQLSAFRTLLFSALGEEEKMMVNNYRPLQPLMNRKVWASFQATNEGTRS
T9 sequence (P23280 18-308): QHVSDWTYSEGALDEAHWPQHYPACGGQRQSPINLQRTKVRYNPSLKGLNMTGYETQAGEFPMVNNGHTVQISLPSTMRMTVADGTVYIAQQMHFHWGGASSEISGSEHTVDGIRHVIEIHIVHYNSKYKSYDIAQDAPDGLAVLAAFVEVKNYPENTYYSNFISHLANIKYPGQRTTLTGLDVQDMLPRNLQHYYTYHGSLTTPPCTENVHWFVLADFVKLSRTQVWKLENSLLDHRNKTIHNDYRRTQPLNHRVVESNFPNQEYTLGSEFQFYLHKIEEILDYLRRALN
T10 sequence (Q9ULX7 16-337): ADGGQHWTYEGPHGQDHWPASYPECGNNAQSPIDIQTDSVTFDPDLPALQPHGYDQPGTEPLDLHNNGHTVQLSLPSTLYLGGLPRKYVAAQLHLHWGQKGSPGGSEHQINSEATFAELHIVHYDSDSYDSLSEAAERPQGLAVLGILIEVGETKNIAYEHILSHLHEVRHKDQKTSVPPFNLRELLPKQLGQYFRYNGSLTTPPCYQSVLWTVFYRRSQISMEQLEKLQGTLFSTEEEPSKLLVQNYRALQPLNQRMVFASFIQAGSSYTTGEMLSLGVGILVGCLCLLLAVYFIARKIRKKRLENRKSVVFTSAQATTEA
T8 sequence (Q9Y2D0 34-317): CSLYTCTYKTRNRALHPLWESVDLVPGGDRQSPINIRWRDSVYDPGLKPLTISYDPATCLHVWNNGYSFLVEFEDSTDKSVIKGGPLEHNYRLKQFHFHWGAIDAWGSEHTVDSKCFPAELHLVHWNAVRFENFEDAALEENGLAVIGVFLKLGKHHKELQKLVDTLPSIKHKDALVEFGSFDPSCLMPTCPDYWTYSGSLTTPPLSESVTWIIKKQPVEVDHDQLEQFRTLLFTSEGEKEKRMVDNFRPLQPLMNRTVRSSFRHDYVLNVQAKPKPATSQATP
T7 sequence (Q8N1Q1 whole entry): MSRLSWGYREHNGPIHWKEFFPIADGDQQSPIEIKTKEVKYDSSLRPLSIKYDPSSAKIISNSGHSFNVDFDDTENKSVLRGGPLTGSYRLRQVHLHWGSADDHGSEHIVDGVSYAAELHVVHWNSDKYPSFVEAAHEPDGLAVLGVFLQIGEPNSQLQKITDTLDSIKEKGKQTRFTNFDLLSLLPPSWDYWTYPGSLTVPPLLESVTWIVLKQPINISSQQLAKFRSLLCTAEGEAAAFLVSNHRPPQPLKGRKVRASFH
T2 sequence (P00915 whole entry): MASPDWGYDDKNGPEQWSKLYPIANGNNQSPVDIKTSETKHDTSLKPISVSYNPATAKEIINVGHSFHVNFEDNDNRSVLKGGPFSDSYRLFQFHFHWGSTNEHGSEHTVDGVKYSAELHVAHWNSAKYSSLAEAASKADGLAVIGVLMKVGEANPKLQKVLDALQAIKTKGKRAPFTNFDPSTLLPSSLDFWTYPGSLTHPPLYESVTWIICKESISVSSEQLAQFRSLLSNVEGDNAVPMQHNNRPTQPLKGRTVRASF
T4 sequence (P43166 whole entry): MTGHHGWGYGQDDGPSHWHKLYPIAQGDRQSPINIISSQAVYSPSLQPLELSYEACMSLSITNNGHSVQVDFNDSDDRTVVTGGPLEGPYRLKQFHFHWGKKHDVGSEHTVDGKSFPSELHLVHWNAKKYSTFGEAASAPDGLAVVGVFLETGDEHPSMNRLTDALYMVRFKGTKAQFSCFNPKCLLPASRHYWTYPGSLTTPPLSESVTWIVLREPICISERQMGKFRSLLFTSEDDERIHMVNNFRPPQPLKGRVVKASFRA
T1 sequence (O43570 25-354): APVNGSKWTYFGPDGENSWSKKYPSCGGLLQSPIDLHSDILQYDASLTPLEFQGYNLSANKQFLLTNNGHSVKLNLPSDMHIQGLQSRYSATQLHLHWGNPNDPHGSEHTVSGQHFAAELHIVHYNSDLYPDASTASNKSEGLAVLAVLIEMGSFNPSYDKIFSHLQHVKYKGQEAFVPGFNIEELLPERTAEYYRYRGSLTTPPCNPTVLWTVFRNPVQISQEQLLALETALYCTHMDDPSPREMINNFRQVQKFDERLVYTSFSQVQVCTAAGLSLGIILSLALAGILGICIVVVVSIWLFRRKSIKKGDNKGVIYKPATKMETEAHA

Ki [3] [µM] | Ki [4] [µM] | Ki [6] [µM] | Ki [7] [µM] | Ki [8] [µM] | Ki [9] [µM] | Ki [10] [µM] | Ki [11] [µM] | Ki [12] [µM] | Compound | Kd [1] [µM] | other results
– | – | – | – | – | – | – | – | – | Clc1ccc(OCc2nn[nH]n2)cc1 [Compound 6] | 709 | –
– | – | – | – | – | – | – | – | – | O=C(O)c1cccc(Oc2ccccc2)c1 [Compound 2] | 1280 | –
16.3 | 58.9 | 0.75 | 2.5 | 7.4 | 40.9 | 5.9 | 2.3 | 8.2 | CN(CCOc1ccc(CC2SC(=O)NC2=O)cc1)c1ccccn1 (centres unmarked) [Compound 12, 5-[[4-[2-(methyl-2-pyridinylamino)ethoxy]phenyl]methyl]-2,4-thiazolidinedione] | – | Ki [2]: 3.7 µM; Ki [5]: 6.1 µM
57.2 | > 100 | 1.3 | 1.3 | 32.3 | 28.9 | 46.7 | 16.8 | 12.4 | Cc1c(C)c2c(c(C)c1O)CCC(C)(COc1ccc(CC3SC(=O)NC3=O)cc1)O2 (racemic) [Compound 11, (±)-5-[4-[(6-Hydroxy-2,5,7,8-tetramethylchroman-2-yl)methoxy]benzyl]-2,4-thiazolidinedione] | – | Ki [2]: 0.92 µM
– | – | – | – | – | – | – | – | – | O=C(O)Cc1cccc(OCc2ccccc2)c1 [Compound 3] | 1080 | –
– | – | – | – | – | – | – | – | – | Clc1ccccc1OCc1nn[nH]n1 [Compound 5] | 631 | –
39.6 | 92.1 | 7.1 | 0.75 | 21.5 | 36.2 | 19.8 | 6.6 | 5.3 | CCc1ccc(CCOc2ccc(CC3SC(=O)NC3=O)cc2)nc1 (centres unmarked) [Compound 13, 5-[[4-[2-(5-ethyl-2-pyridinyl)ethoxy]phenyl]methyl]-2,4-thiazolidinedione monohydrochloride] | – | Ki [5]: 4.9 µM
– | – | – | – | – | – | – | – | – | O=C(CSc1nnc[nH]1)c1ccccc1 [Compound 7] | 194 | –
– | – | – | – | – | – | – | – | – | Cc1ccnc(S(N)(=O)=O)n1 [Compound 4] | 1.4 | –
– | – | – | – | – | – | – | – | – | C/C(=C\C(=O)O)c1ccc(Cl)cc1 [Compound 1] | 905 | –
